Laboratory results reported in US20050063969A1, “Assay” (priority 2001, published 2005).

What was measured:
Format in all cases: cell-based
K562-αvβ5 cells = assay: Adhesion of K562-αvβ5 cells to wells coated with GST-LAPβ3 (amino acids 259-269); settings: wells coated with 0.5 μg GST-LAPβ3; 0.5 mM MnCl2; antibodies 1 μg/well; FIG. 4
Description: (§1) K562-αvβ5 cells were allowed to attach to wells coated with 0.5 μg of GST-LAPμ3 (amino acids 259-269) in the presence of 0.5 mM MnCl2. Specific blocking antibodies (1 μg/well) and compounds were added as indicated. Each data point represents the mean±SD of duplicate points, and is representative of at least three identical experiments.
(§2) K562-WT (wild-type), K562-αvβ6, K562-αvβ5 and K562-αvβ3 cells were maintained in 1:1 RPMI 1640, Hepes modification (Gibco): Dulbecco's […] (DMEM), Hepes modification (Sigma) supplemented with L-glutamine (Gibco) and 10% fetal calf serum (FCS). In addition K562-αvβ3, K562-αvβ5, and K562-αvβ6 cells were supplemented with geneticin (G418, Gibco) at 1 mg/ml. All transfected cells were generated by transfecting K562 cells with pCDNA-3 constructs containing individual integrin cDNAs, using lipofectamine plus (Gibco BRL).
(§3) All proteins were coated onto Maxisorp 96-well plates (Nunclon) overnight at 4° C. […] For quantitation cells were visualised by staining with 0.1% crystal violet (Sigma) for 10 minutes then lysed in 0.5% Triton X-100 (Sigma) and read optically at 570 nm in a Wallac Victor plate reader.
(§4) The region of LAPβ3 corresponding to amino acids 259 to 269 (^259HGRGDLGRLKK^269) was expressed as a GST fusion protein and tested for the ability to support adhesion of K562-αvβ3, K562-αvβ5, and K562-αvβ6 cells. […]

K562-αvβ3 cells = assay: Adhesion of K562-αvβ3 cells to wells coated with GST-LAPβ3 (amino acids 259-269); settings: wells coated with 0.5 μg GST-LAPβ3; 2 mM MgCl2; antibodies 1 μg/well; FIG. 2
Description: as §1, with “K562-αvβ3 cells” for “K562-αvβ5 cells”, “of GST-LAPβ3” for “of GST-LAPμ3”, “of 2” for “of 0.5”, “mM MgCl2.” for “mM MnCl2.”
as §2, §3, §4

K562-αvβ6 cells = assay: Adhesion of K562-αvβ6 cells to wells coated with GST-LAPβ3 (amino acids 259-269); settings: wells coated with 0.5 μg GST-LAPβ3; 2 mM MgCl2; antibodies 1 μg/well; FIG. 3
Description: as §1, with “K562-αvβ6 cells” for “K562-αvβ5 cells”, “of GST-LAPβ3 (amino-acids” for “of GST-LAPμ3 (amino acids”, “of 2” for “of 0.5”, “mM MgCl2.” for “mM MnCl2.”
as §2, §3, §4

| Compound | Inhibition of K562-αvβ5 cell adhesion to GST-LAPβ3 (amino acids 259-269) (K562-αvβ5 cells) | Blocking of K562-αvβ3 cell adhesion to GST-LAPβ3 (amino acids 259-269) (K562-αvβ3 cells) | Blocking of K562-αvβ6 cell adhesion to GST-LAPβ3 (amino acids 259-269) (K562-αvβ6 cells) |
| --- | --- | --- | --- |
| CN(Cc1nc2ccccc2[nH]1)C(=O)c1ccc2c(c1)CN(C)C(=O)[C@H](CC(=O)O)N2 [SB223245] | total blockade | blocked | – |
| Ac—RTDLDSLRT-NH2 (Ac-RTDLDSLRT-NH2) [GW603365A, described in WO 0037487] | – | – | blocked |
